Read-outs that look alike come from different tables or passages of the source.
Target: T1, human sweet receptor (T1R2 and T1R3) (Homo sapiens, UniProt Q7RTX0+Q8TE23)
T1 construct: expressed in transfected cells; host or cells: HEK293 cells co-expressing Galpha15
T1 sequence (Q8TE23 20-839): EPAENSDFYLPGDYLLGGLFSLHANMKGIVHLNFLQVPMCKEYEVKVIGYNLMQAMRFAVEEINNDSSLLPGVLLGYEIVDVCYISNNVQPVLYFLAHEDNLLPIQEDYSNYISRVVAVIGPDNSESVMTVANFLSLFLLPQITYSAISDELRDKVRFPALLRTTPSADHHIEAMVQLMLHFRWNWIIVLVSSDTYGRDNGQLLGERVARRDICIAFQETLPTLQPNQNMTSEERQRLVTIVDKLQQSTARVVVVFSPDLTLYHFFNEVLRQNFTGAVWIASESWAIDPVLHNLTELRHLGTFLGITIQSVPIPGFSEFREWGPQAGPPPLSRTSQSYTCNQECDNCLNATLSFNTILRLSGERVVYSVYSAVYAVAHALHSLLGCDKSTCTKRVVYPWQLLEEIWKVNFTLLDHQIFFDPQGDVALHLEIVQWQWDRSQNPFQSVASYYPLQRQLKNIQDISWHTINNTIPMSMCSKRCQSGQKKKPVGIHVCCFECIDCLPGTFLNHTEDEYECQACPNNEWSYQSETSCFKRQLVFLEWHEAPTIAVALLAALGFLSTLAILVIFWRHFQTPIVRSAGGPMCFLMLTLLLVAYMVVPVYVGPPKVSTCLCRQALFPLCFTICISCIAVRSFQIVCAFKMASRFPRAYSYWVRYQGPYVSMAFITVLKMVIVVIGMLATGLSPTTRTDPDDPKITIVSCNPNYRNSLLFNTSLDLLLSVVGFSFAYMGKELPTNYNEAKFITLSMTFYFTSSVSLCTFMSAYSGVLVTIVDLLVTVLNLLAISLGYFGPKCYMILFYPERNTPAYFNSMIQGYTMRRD
T1 sequence (Q7RTX0 21-852): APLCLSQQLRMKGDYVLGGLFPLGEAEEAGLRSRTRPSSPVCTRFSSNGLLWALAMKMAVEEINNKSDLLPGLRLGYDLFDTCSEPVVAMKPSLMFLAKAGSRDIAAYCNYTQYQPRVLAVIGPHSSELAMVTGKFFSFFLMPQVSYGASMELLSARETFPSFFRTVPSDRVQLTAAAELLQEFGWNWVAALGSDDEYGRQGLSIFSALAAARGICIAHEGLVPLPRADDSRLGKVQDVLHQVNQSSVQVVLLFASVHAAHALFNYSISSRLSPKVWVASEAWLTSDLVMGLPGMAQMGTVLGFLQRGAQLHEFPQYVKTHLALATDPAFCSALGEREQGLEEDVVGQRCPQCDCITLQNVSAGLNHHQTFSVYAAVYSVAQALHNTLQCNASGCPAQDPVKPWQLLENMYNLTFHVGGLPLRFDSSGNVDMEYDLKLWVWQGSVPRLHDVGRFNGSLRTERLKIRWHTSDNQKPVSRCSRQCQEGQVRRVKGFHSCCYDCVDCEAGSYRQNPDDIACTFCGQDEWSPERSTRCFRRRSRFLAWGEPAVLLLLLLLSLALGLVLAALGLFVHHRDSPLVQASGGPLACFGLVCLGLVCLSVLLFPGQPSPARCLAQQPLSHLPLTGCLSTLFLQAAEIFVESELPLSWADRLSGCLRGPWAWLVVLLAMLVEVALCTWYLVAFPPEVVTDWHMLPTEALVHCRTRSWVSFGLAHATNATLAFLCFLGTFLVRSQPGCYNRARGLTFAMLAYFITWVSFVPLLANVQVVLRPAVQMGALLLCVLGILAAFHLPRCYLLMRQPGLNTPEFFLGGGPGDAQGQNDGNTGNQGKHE
Assay: Calcium imaging (Fluo3AM/FLIPR) sweet receptor enhancer assay in hT1R2/hT1R3-HEK293 Galpha15 cells, with pre-incubation step
Format: cell-based
Details: read-out: potency of Sucralose (dose-response)
Protocol: In the subject assays the receptor or cells expressing same will be placed in a suitable environment that facilitates the receptor or cells to be used in the particular assay. For instance, in the exemplified calcium imaging assays cells which express hT1R2/hT1R3-HEK293 G[…]15 cells were seeded in 384-well-clear bottom plates (Fisher) at a density of ˜50,000 cells/well and grown overnight at 37 degrees C. However, it is anticipated that these cell density conditions and/or cell culture devices potentially may be altered.
On the day of the experiment, cells were loaded with a commercially available calcium indicator dye Fluo3AM (2 uM) (Invitrogen) in D-PBS (Invitrogen) using a Multidrop (Titertek). (Again while Fluo3AM is exemplified it is anticipated that other known and available calcium indicators can be substituted therefore). […] After 30 minutes of rest time at room temperature, Fluo3AM-loaded cell plate, a compound plate and a sweetener plate were loaded into a Fluorometric Imaging Plate Reader (FLIPR, Molecular Devices). […] Imaging was initiated with the acquisition of the baseline fluorescence for a period of 7 to 10 seconds, and then cells were stimulated on line with addition of 25 µl/well of the compound plate (pre-incubation step). […]

EC50 (cells pre-incubated with S2423 (50 uM or 25 uM final)): 11 µM
EC50 (without S2423): 53 µM
SMILES: OC[C@H]1O[C@H](O[C@]2(CCl)O[C@H](CCl)[C@@H](O)[C@@H]2O)[C@H](O)[C@@H](O)[C@H]1Cl [Sucralose]
